# Data as given in patent US9302999B2, “Substituted triazoles as herbicides” (E. I. DU PONT DE NEMOURS AND COMPANY, priority 2012, dated 2016).
# Like-named read-outs stand apart in the source and are kept apart here.
# Experiments:
# Assay type in all cases: in vivo
# [1] = test system: barnyardgrass (Echinochloa crus-galli); assay: Test C flooded paddy test: barnyardgrass; conditions: Echinochloa crus-galli, scale 0 to 100 (0 no effect, 100 complete control), read-out: Plant response rating, Barnyardgrass; for pest or weed control at 62 g/ha: 62 g ai/ha; for pest or weed control at 125 g/ha: 125 g ai/ha; for pest or weed control at 250 g/ha: 250 g ai/ha; for pest or weed control at 31 g/ha: 31 g ai/ha
# Procedure, shortened: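 Plants were grown to the 2-leaf stage, pots flooded to 3 cm above soil, and test compounds applied directly to the paddy water, with that depth held throughout. After 13 to 15 days in a greenhouse, injury was visually rated against controls on a 0 (no effect) to 100 (complete control) scale.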
# wild oat (Avena fatua) = assay: Test C pre-/postemergence: wild oat
# Text: (§1) Seeds of plant species selected from blackgrass (Alopecurus myosuroides), bromegrass, downy (downy bromegrass, Bromus tectorum), foxtail, green (green foxtail, Setaria viridis), ryegrass, Italian (Italian ryegrass, Lolium multiflorum), winter wheat (Triticum aestivum), wild oat (Avena fatua), galium (catchweed bedstraw, Galium aparine), bermudagrass (Cynodon dactylon), surinam grass (Brachiaria decumbens), cocklebur (common cocklebur, Xanthium strumarium), corn (Zea mays), large crabgrass (Digitaria sanguinalis), woolly cupgrass (Eriochloa villosa), foxtail, giant (giant foxtail, Setaria faberii), goosegrass (Eleusine indica), johnsongrass (Sorghum halepense), kochia (Kochia scoparia), lambsquarters (Chenopodium album), morningglory (Ipomoea coccinea), nightshade (eastern black nightshade, Solanum ptycanthum), nutsedge, yellow (yellow nutsedge, Cyperus esculentus), pigweed (Amaranthus retroflexus), ragweed (common ragweed, Ambrosia elation), soybean (Glycine max), common (oilseed) sunflower (Helianthus annuus), Russian thistle (Salsola kali) and velvetleaf (Abutilon theophrasti) were planted into a blend of loam soil and sand and treated preemergence with test chemicals formulated in a non-phytotoxic solvent mixture which included a surfactant.
# (§2) At the same time, plants selected from these crop and weed species and also barley (winter barley, Hordeum vulgare), canarygrass (Phalaris minor), chickweed (common chickweed, Stellaria media) windgrass (Apera spica-venti) and deadnettle (henbit deadnettle, Lamium amplexicaule) were planted in pots containing Redi-Earth® planting medium (Scotts Company, 14111 Scottslawn Road, Marysville, Ohio 43041) comprising spaghnum peat moss, vermiculite, wetting agent and starter nutrients and treated with postemergence applications of test chemicals formulated in the same manner. Plants ranged in height from 2 to 18 cm (1- to 4-leaf stage) for postemergence treatments.
# (§3) Treated plants and controls were maintained in a greenhouse for 13 to 15 days, after which time all species were compared to controls and visually evaluated. Plant response ratings, summarized in Table C, are based on a scale of 0 to 100 where 0 is no effect and 100 is complete control. A dash (-) response means no test result.
# [2] = test system: surinam grass (Brachiaria decumbens); assay: Test C pre-/postemergence: surinam grass; conditions: Preemergence
# Text: as §1, §2, §3
# [3] = test system: lambsquarters (Chenopodium album); assay: Test C pre-/postemergence: lambsquarters
# Text: as §1, §2, §3
# [4] = test system: chamomile (scentless chamomile, Matricaria inodora); assay: Test D pre-/postemergence: chamomile
# Text: (§4) Seeds of plant species selected from bluegrass (annual bluegrass, Poa annua), blackgrass (Alopecurus myosuroides), canarygrass (Phalaris minor), chickweed (common chickweed, Stellaria media), galium (catchweed bedstraw, Galium aparine), bromegrass, downy (downy bromegrass, Bromus tectorum), field poppy (Papaver rhoeas), field violet (Viola arvensis), foxtail, green (green foxtail, Setaria viridis), deadnettle (henbit deadnettle, Lamium amplexicaule), ryegrass, Italian (Italian ryegrass, Lolium multiflorum), kochia (Kochia scoparia), lambsquarters (Chenopodium album), oilseed rape (Brassica napus), pigweed (Amaranthus retroflexus), Russian thistle (Salsola iberica), chamomile (scentless chamomile, Matricaria inodora), speedwell (bird's-eye speedwell, Veronica persica), barley, spring (spring barley, Hordeum vulgare), wheat, spring (spring wheat, Triticum aestivum), buckwheat, wild (wild buckwheat, Polygonum convolvulus), mustard, wild (wild mustard, Sinapis arvensis), oat, wild (wild oat, Avena fatua), radish, wild (wild radish, Raphanus raphanistrum), windgrass (Apera spica-venti), barley, winter (winter barley, Hordeum vulgare), and wheat, winter (winter wheat, Triticum aestivum) were planted into a silt loam soil and treated preemergence with test chemicals formulated in a non-phytotoxic solvent mixture which included a surfactant. At the same time, these same crop and weed species were planted in pots containing the planting medium comprising spaghnum peat moss, vermiculite, wetting agent and starter nutrients and treated with postemergence applications of the test chemicals formulated in the same manner. Plants ranged in height from 2 to 18 cm (1- to 4-leaf stage).
# as §3, with “controlled growth environment” for “greenhouse”, “14” for “13”, “21 days” for “15 days,”, “D,” for “C,”
# [5] = test system: wheat, spring (spring wheat, Triticum aestivum); assay: Test D pre-/postemergence: wheat, spring
# Text: as §4
# as §3, with “controlled growth environment” for “greenhouse”, “14” for “13”, “21 days” for “15 days,”, “D,” for “C,”
# [6] = test system: oat, wild (wild oat, Avena fatua); assay: Test D pre-/postemergence: oat, wild
# Text: as §4
# as §3, with “controlled growth environment” for “greenhouse”, “14” for “13”, “21 days” for “15 days,”, “D,” for “C,”
# [7] = test system: windgrass (Apera spica-venti); assay: Test D pre-/postemergence: windgrass
# Text: as §4
# as §3, with “controlled growth environment” for “greenhouse”, “14” for “13”, “21 days” for “15 days,”, “D,” for “C,”
# [8] = Flood (flooded paddy test), visual rating after 13 to 15 days
# [9] = Preemergence, 31 g ai/ha, scale of 0 to 100, 0 is no effect, 100 is complete control
# [10] = Preemergence, 62 g ai/ha, scale of 0 to 100, 0 is no effect, 100 is complete control
# [11] = Preemergence, 125 g ai/ha, scale 0 to 100, 0 no effect, 100 complete control
# [12] = Preemergence, 250 g ai/ha, scale 0 to 100, 0 no effect, 100 complete control
# [13] = Postemergence, 31 g ai/ha, scale 0 to 100 (0 no effect, 100 complete control)
# [14] = Postemergence, 62 g ai/ha, scale 0 to 100 (0 no effect, 100 complete control)
# [15] = Postemergence, 125 g ai/ha, scale 0 to 100, 0 no effect, 100 complete control
# [16] = Postemergence, 16 g ai/ha, scale 0 to 100
# [17] = Preemergence, 16 g ai/ha, scale 0 to 100 (0 no effect, 100 complete control)
# [18] = Preemergence, 31 g ai/ha, scale 0 to 100 (0 no effect, 100 complete control)
# [19] = Preemergence, 62 g ai/ha, scale 0 to 100
# [20] = Preemergence, 125 g ai/ha, scale 0 to 100
# [21] = Postemergence, 250 g ai/ha, scale 0 to 100
structure (smiles),measurement,setting,value
"COc1nn(-c2ccc(C(F)(F)F)cc2)nc1Cn1ccc(C(F)(F)F)n1 [Compound 17, 4-methoxy-2-[4-(trifluoromethyl)phenyl]-5-[[3-(trifluoromethyl)-1H-pyrazol-1-yl]methyl]-2H-1,2,3-triazole]",pest or weed control at 62 g/ha,[1]; [8],20%
same,pest or weed control at 125 g/ha,[1]; [8],40%
same,pest or weed control at 250 g/ha,[1]; [8],45%
same,pest or weed control at 31 g/ha,[1]; Flood,0%
"CCc1nn(-c2ccc(C(F)(F)F)cc2)nc1Oc1cccc(OC(F)(F)F)c1 [Compound 125, 4-ethyl-5-[3-(trifluoromethoxy)phenoxy]-2-[4-(trifluoromethyl)phenyl]-2H-1,2,3-triazole]",pest or weed control at 125 g/ha,[1]; [8],0%
same,pest or weed control at 250 g/ha,[1]; [8],10%
same,pest or weed control at 31 g/ha,[1]; Flood,0%
same,pest or weed control at 62 g/ha,[1]; Flood,0%
Cc1nn(-c2ccc(F)c(C(F)(F)F)c2)nc1Oc1ccnc(C(F)(F)F)c1 [Compound 147],"Plant response rating, Oat, Wild",wild oat (Avena fatua); [9],60
same,"Plant response rating, Oat, Wild",wild oat (Avena fatua); [10],70
same,"Plant response rating, Oat, Wild",wild oat (Avena fatua); [11],85
same,"Plant response rating, Oat, Wild",wild oat (Avena fatua); [12],95
same,"Plant response rating, Surinam Grass","[2]; 31 g ai/ha, scale of 0 to 100, 0 is no effect, 100 is complete control",55
same,"Plant response rating, Surinam Grass","[2]; 62 g ai/ha, scale of 0 to 100, 0 is no effect, 100 is complete control",80
same,"Plant response rating, Surinam Grass","[2]; 125 g ai/ha, scale 0 to 100, 0 no effect, 100 complete control",95
same,"Plant response rating, Surinam Grass","[2]; 250 g ai/ha, scale 0 to 100, 0 no effect, 100 complete control",95
same,"Plant response rating, Lambsquarters",[3]; [9],35
same,"Plant response rating, Lambsquarters",[3]; [10],45
same,"Plant response rating, Lambsquarters",[3]; [11],80
same,"Plant response rating, Lambsquarters",[3]; [12],80
same,Plant response rating: Chamomile,[4]; [13],60
same,Plant response rating: Chamomile,[4]; [14],75
same,Plant response rating: Chamomile,[4]; [15],80
same,"Plant response rating, Chamomile",[4]; [16],45
same,"Plant response rating, Chamomile",[4]; [17],25
same,"Plant response rating, Chamomile",[4]; [18],15
same,"Plant response rating, Chamomile",[4]; [19],90
same,"Plant response rating, Chamomile",[4]; [20],95
same,"Plant response rating: Wheat, Spring",[5]; [13],15
same,"Plant response rating: Wheat, Spring",[5]; [14],20
same,"Plant response rating: Wheat, Spring",[5]; [15],25
same,"Plant response rating, Wheat, Spring",[5]; [16],10
same,"Plant response rating, Wheat, Spring",[5]; [17],0
same,"Plant response rating, Wheat, Spring",[5]; [18],0
same,"Plant response rating, Wheat, Spring",[5]; [19],0
same,"Plant response rating, Wheat, Spring",[5]; [20],5
same,"Plant response rating: Oat, Wild",[6]; [13],15
same,"Plant response rating: Oat, Wild",[6]; [14],30
same,"Plant response rating: Oat, Wild",[6]; [15],35
same,"Plant response rating, Oat, Wild",[6]; [16],10
same,"Plant response rating, Oat, Wild",[6]; [17],5
same,"Plant response rating, Oat, Wild",[6]; [18],15
same,"Plant response rating, Oat, Wild",[6]; [19],35
same,"Plant response rating, Oat, Wild",[6]; [20],70
same,Plant response rating: Windgrass,[7]; [14],50
same,Plant response rating: Windgrass,[7]; [15],75
same,"Plant response rating, Windgrass",[7]; [16],15
same,"Plant response rating, Windgrass","[7]; Postemergence, 31 g ai/ha, scale 0 to 100",25
same,"Plant response rating, Windgrass",[7]; [17],0
same,"Plant response rating, Windgrass",[7]; [18],60
same,"Plant response rating, Windgrass",[7]; [19],100
same,"Plant response rating, Windgrass",[7]; [20],100
CCCc1nn(-c2ccc(F)cc2)nc1Cc1ccnc(C(F)(F)F)c1 [Compound 153],"Plant response rating, Oat, Wild",wild oat (Avena fatua); [13],35
same,"Plant response rating, Oat, Wild",wild oat (Avena fatua); [14],50
same,"Plant response rating, Oat, Wild",wild oat (Avena fatua); [15],70
same,"Plant response rating, Oat, Wild",wild oat (Avena fatua); [21],85
same,"Plant response rating, Lambsquarters",[3]; [13],95
same,"Plant response rating, Lambsquarters",[3]; [14],95
same,"Plant response rating, Lambsquarters",[3]; [15],95
same,"Plant response rating, Lambsquarters",[3]; [21],95
same,"Plant response rating, Lambsquarters",[3]; [9],95
same,"Plant response rating, Lambsquarters",[3]; [10],100
same,"Plant response rating, Lambsquarters",[3]; [11],100
same,"Plant response rating, Lambsquarters",[3]; [12],100
